Values joined by “and” are separate entries in the source; they are usually repeats but may differ in a detail not shown here. Equal values may be shown once.
Columns and labels:
[1] = target: human S1P5 R111Q mutant (Homo sapiens, UniProt Q9H228, R111Q); assay: BRET-based cAMP Gi signaling assay, S1P5 R111Q; settings: inverse agonism
[2] = target: human S1P5 E112A mutant (Homo sapiens, UniProt Q9H228, E112A); assay: BRET-based cAMP Gi signaling assay, S1P5 E112A; settings: inverse agonism
[3] = target: human S1P5 E112Q mutant (Homo sapiens, UniProt Q9H228, E112Q); assay: BRET-based cAMP Gi signaling assay, S1P5 E112Q; settings: inverse agonism
Sequence of human S1P5 E112Q mutant (Q9H228 whole entry E112Q): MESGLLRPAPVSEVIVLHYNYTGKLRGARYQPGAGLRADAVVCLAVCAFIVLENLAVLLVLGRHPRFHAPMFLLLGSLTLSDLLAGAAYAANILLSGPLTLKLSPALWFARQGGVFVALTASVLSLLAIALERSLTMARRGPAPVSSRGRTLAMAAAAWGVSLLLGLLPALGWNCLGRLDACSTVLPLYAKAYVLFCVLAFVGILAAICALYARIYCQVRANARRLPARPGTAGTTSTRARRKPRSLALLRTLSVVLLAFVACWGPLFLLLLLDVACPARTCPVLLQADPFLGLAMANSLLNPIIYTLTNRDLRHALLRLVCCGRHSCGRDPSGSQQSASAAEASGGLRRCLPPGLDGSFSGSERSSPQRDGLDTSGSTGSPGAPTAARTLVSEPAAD

[4] = target: human S1P5 V115A mutant (Homo sapiens, UniProt Q9H228, V115A); assay: BRET-based cAMP Gi signaling assay, S1P5 V115A; settings: inverse agonism
Sequence of human S1P5 V115A mutant (Q9H228 whole entry V115A): as the sequence (Q9H228 whole entry E112Q) above, with Q112E, V115A counted along it

[5] = target: human S1P5 V115L mutant (Homo sapiens, UniProt Q9H228, V115L); assay: BRET-based cAMP Gi signaling assay, S1P5 V115L; settings: inverse agonism
Sequence of human S1P5 V115L mutant (Q9H228 whole entry V115L): as the sequence (Q9H228 whole entry E112Q) above, with Q112E, V115L counted along it

[6] = target: human S1P5 L292A mutant (Homo sapiens, UniProt Q9H228, L292A); assay: BRET-based cAMP Gi signaling assay, S1P5 L292A; settings: inverse agonism
Sequence of human S1P5 L292A mutant (Q9H228 whole entry L292A): as the sequence (Q9H228 whole entry E112Q) above, with Q112E, L292A counted along it

[7] = target: human S1P5 M296W mutant (Homo sapiens, UniProt Q9H228, M296W); assay: BRET-based cAMP Gi signaling assay, S1P5 M296W; settings: for BRET ratio, single replicate readings (Supplementary Figure 6h): listed as ONO
Sequence of human S1P5 M296W mutant (Q9H228 whole entry M296W): as the sequence (Q9H228 whole entry E112Q) above, with Q112E, M296W counted along it

[8] = target: human WT S1P5 receptor (Homo sapiens, UniProt Q9H228); assay: BRET-based cAMP (EPAC biosensor) Gi signaling assay, WT S1P5; settings: for BRET signal, raw replicate readings: WT, listed as ONO; for EC50: inverse agonism
Sequence of human WT S1P5 receptor (Q9H228 whole entry): as the sequence (Q9H228 whole entry E112Q) above, with Q112E counted along it

[9] = Figure 2c source data, N/R = no response

Sequence of human S1P5 E112A mutant (Q9H228 whole entry E112A): as the sequence (Q9H228 whole entry E112Q) above, with Q112A counted along it
Sequence of human S1P5 R111Q mutant (Q9H228 whole entry R111Q): as the sequence (Q9H228 whole entry E112Q) above, with R111Q, Q112E counted along it

## O=C(O)CCCN1CCc2cccc(OCCc3cccc4ccccc34)c2CC1 [ONO-5430608, 4-{6-[2-(1-naphthyl)ethoxy]-1,2,4,5-tetrahydro-3H-3-benzazepin-3-yl} butanoic acid]
[1]; [9]
  ONO-5430608 pEC50, single experiments #1-#3: N/R
[1]; n=3, N/R = no response
  ONO, pEC50, M: N/R
[2]; [9]
  ONO-5430608 pEC50, single experiments #1-#3: N/R
[2]; n=3, N/R = no response
  ONO, pEC50, M: N/R
[3]; [9]
  ONO-5430608 pEC50, single experiments #1-#3: N/R
[3]; n=3, N/R = no response
  ONO, pEC50, M: N/R
[4]; ONO, pEC50, M, V115A, mean ± SD, n=3
  EC50: 29.5 nM
[4]; ONO-5430608 pEC50, single experiments #1-#3, V115A, Figure 2c source data
  EC50: 30.6 nM and 24.8 nM and 34.5 nM
[5]; ONO, pEC50, M, V115L, mean ± SD, n=3
  EC50: 25.1 nM
[5]; ONO-5430608 pEC50, single experiments #1-#3, V115L, Figure 2c source data
  EC50: 20.7 nM and 25.9 nM and 22.9 nM
[6]; ONO, pEC50, M, L292A, mean ± SD, n=3
  EC50: 21.9 nM
[6]; ONO-5430608 pEC50, single experiments #1-#3, L292A, Figure 2c source data
  EC50: 18.9 nM and 24 nM and 23.2 nM
[7]; [ONO] 0.169351 nM
  BRET ratio, single replicate readings (Supplementary Figure 6h): 0.7521 and 0.7659 and 0.7554 and 0.7607 and 0.7663 and 0.7553 and 0.7695 and 0.7638 and 0.7661
[7]; [ONO] 0.508053 nM
  BRET ratio, single replicate readings (Supplementary Figure 6h): 0.7597 and 0.7659 and 0.7636 and 0.7627 and 0.756 and 0.7622 and 0.7625 and 0.7687 and 0.7621
[7]; [ONO] 1.52416 nM
  BRET ratio, single replicate readings (Supplementary Figure 6h): 0.7595 and 0.7589 (2×) and 0.7566 and 0.7528 and 0.7609 and 0.7625 and 0.7671 and 0.7682
[7]; [ONO] 4.57247 nM
  BRET ratio, single replicate readings (Supplementary Figure 6h): 0.7595 and 0.7699 and 0.7641 and 0.7574 and 0.7643 and 0.7563 and 0.7684 and 0.7632 and 0.7578
[7]; [ONO] 13.7174 nM
  BRET ratio, single replicate readings (Supplementary Figure 6h): 0.7542 and 0.7653 and 0.7527 and 0.7649 and 0.7654 and 0.7644 and 0.7698 and 0.7669 and 0.7638
[7]; [ONO] 41.1523 nM
  BRET ratio, single replicate readings (Supplementary Figure 6h): 0.7431 and 0.7677 and 0.7621 and 0.752 and 0.762 and 0.7675 and 0.761 and 0.7565 and 0.7598
[7]; [ONO] 123.457 nM
  BRET ratio, single replicate readings (Supplementary Figure 6h): 0.7416 and 0.7628 and 0.7677 and 0.7662 and 0.759 and 0.753 and 0.7663 and 0.7668 and 0.7626
[7]; [ONO] 370.37 nM
  BRET ratio, single replicate readings (Supplementary Figure 6h): 0.7572 and 0.757 and 0.7547 and 0.7694 and 0.7517 and 0.7654 and 0.7672 and 0.761 and 0.7564
[7]; [ONO] 1111.11 nM
  BRET ratio, single replicate readings (Supplementary Figure 6h): 0.7578 and 0.7573 and 0.7667 and 0.7569 and 0.7627 and 0.7676 and 0.756 and 0.7697 and 0.7628
[7]; [ONO] 3333.33 nM
  BRET ratio, single replicate readings (Supplementary Figure 6h): 0.7629 and 0.7592 and 0.7535 and 0.7543 and 0.758 and 0.7671 and 0.744 and 0.7683 and 0.7586
[7]; inverse agonism, Figure 2c source data, N/R = no response
  ONO-5430608 pEC50, single experiments #1-#3: N/R
[7]; inverse agonism, n=3, N/R = no response
  ONO, pEC50, M: N/R
[8]; ONO 0.169351 nM, Suppl. Fig. 6f
  BRET signal, raw replicate readings: 0.7609 and 0.7595 and 0.7587 and 0.7654 and 0.7615 and 0.7604 (2×) and 0.7628 and 0.7565
[8]; ONO 0.508053 nM, Suppl. Fig. 6f
  BRET signal, raw replicate readings: 0.753 and 0.7592 and 0.758 and 0.7626 and 0.762 and 0.759 and 0.761 and 0.7561 and 0.756
[8]; ONO 1.52416 nM, Suppl. Fig. 6f
  BRET signal, raw replicate readings: 0.748 and 0.7474 and 0.7478 (2×) and 0.7504 and 0.7525 and 0.7488 and 0.7446 and 0.7482
[8]; ONO 4.57247 nM, Suppl. Fig. 6f
  BRET signal, raw replicate readings: 0.7341 and 0.7354 and 0.7359 and 0.7386 and 0.7387 and 0.7347 and 0.7361 and 0.7362 and 0.7324
[8]; ONO 13.7174 nM, Suppl. Fig. 6f
  BRET signal, raw replicate readings: 0.7302 and 0.7285 and 0.7222 and 0.7325 and 0.7293 and 0.7332 and 0.7263 and 0.7276 and 0.7242
[8]; ONO 41.1523 nM, Suppl. Fig. 6f
  BRET signal, raw replicate readings: 0.7214 and 0.7273 and 0.7219 and 0.7256 and 0.7267 and 0.7266 and 0.7211 and 0.723 and 0.7239
[8]; ONO 123.457 nM, Suppl. Fig. 6f
  BRET signal, raw replicate readings: 0.7206
[8]; ONO 370.37 nM, Suppl. Fig. 6f
  BRET signal, raw replicate readings: 0.7228 and 0.7223 and 0.7157 and 0.7233 and 0.7238 and 0.7187 and 0.7181 (2×) and 0.7189
[8]; ONO 1111.11 nM, Suppl. Fig. 6f
  BRET signal, raw replicate readings: 0.7185 and 0.7195 and 0.7179 and 0.7229 and 0.7236 and 0.7207 and 0.7165 and 0.7204 and 0.7176
[8]; ONO 3333.33 nM, Suppl. Fig. 6f
  BRET signal, raw replicate readings: 0.719 and 0.7164 and 0.7226 and 0.7203 and 0.722 and 0.7221 and 0.7173 and 0.7187 and 0.715
[8]; ONO 10000 nM, Suppl. Fig. 6f
  BRET signal, raw replicate readings: 0.7216 and 0.7166 and 0.7165 and 0.7146 and 0.719 and 0.7226 and 0.7176 and 0.7153 and 0.7185
[8]; ONO 10000 nM, Suppl. Fig. 6d
  BRET signal, raw replicate readings: 0.7216 and 0.7166 and 0.7165 and 0.7146 and 0.719 and 0.7226 and 0.7176 and 0.7153 and 0.7185
[8]; ONO, pEC50, M, WT S1P5, mean ± SD, n=3
  EC50: 1.7 nM
[8]; ONO-5430608 pEC50, single experiments #1-#3, WT S1P5, Figure 2c source data
  EC50: 1.35 nM and 2 nM and 1.8 nM
[8]; WT S1P5, BRET-based cAMP sensor
  mode of action on Gi-protein-mediated signaling (basal activity level): inverse agonist
